Test results as given in patent publication US20240076293A1, “Compositions and Methods for Inhibiting Fibrosis, Inflammation and Cancer” (Georgia Tech Research Corporation, priority 2020, published 2024).
Read-outs that look alike come from different tables or passages of the source.

Experiments:
Format in all cases: cell-based
[1] = Anti-proliferation IC50, MRC-5; details: human, MRC-5 cells; Table 1, compounds of formula I; NI = no inhibition up to 500 μM
Hep-G2 = experiment: Anti-proliferation IC50, Hep-G2; details: Homo sapiens, HepG2
A549 = experiment: Anti-proliferation IC50, A549; details: Homo sapiens
VERO = experiment: Anti-proliferation IC50, VERO; details: Chlorocebus sabaeus
MRC-5 = experiment: Anti-proliferation IC50, MRC-5; details: Homo sapiens, MRC5; Table 2, compounds of formula II
[2] = Table 1, compounds of formula I, NI = no inhibition up to 500 μM, read-out: Hep-G2 (IC50)
[3] = Table 1, compounds of formula I, NI = no inhibition up to 500 μM, read-out: A549 (IC50)
[4] = Table 1, compounds of formula I, NI = no inhibition up to 500 μM, read-out: VERO (IC50)
[5] = Table 2, compounds of formula II, read-out: Anti-proliferation IC50 Hep-G2
[6] = Table 2, compounds of formula II, read-out: Anti-proliferation IC50 A549
[7] = Table 2, compounds of formula II, read-out: Anti-proliferation IC50 VERO

Compound | IC50 (Hep-G2; [2]) | IC50 (A549; [3]) | IC50 (Hep-G2; [5]) | IC50 (A549; [6]) | IC50 [1] | IC50 (VERO; [4]) | IC50 (MRC-5) | IC50 (VERO; [7])
CC[C@H]1OC(=O)[C@@H](C)[C@@H](O[C@@H]2C[C@](C)(OC)[C@H](O)[C@@H](C)O2)[C@@H](C)[C@@H](O[C@H]2O[C@@H](C)C[C@@H](N(C)C)[C@@H]2OC(=O)/C=C/C=C/c2ccc3c(c2)OCO3)[C@](C)(OC)C[C@@H](C)C(=O)[C@H](C)[C@H](O)[C@]1(C)O | 5.6 ± 0.1 µM | 16.9 ± 0.7 µM |  |  | 7.8 ± 0.7 µM | 21 ± 2.3 µM |  | 
CC[C@@H]1OC(=O)[C@@H](C)[C@H](O)[C@@H](C)[C@H](O[C@H]2O[C@@H](C)C[C@@H](N(C)Cc3ccc(-c4cn(CCNC(=O)CCCC[C@H]5CCSS5)nn4)cc3)[C@@H]2O)C(C)(O)C[C@H](C)CN(C)[C@@H](C)[C@H](O)[C@@]1(C)O (some centres unmarked) |  |  | 14.8 ± 2.1 µM | 27.4 ± 0.5 µM |  |  | 17.9 ± 0.5 µM | 47.7 ± 6.2 µM
CC[C@@H]1OC(=O)[C@@H](C)[C@H](O[C@H]2C[C@@](C)(OC)[C@@H](O)[C@H](C)O2)[C@@H](C)[C@H](O[C@H]2O[C@@H](C)C[C@@H](N(C)C(=O)/C=C/C(=O)OC)[C@@H]2O)C(C)(O)C[C@H](C)CN(C)[C@@H](C)[C@H](O)[C@@]1(C)O (some centres unmarked) |  |  | 126 µM | 214 µM |  |  |  | 212 µM
CC[C@H]1OC(=O)[C@H](C)[C@@H](O[C@H]2C[C@@](C)(OC)[C@@H](O)[C@H](C)O2)[C@H](C)[C@@H](O[C@@H]2O[C@H](C)C[C@H](N(C)C)[C@H]2O)[C@](C)(O)C[C@@H](C)CN(C)[C@H](C)[C@@H](O)[C@]1(C)O [Azithromycin (AZM), Azithromycin, reference compound] | 85.3 ± 0.9 µM | 204 ± 4.5 µM |  |  | 127 ± 1 µM | 222 ± 18.1 µM |  | 
CC[C@H]1OC(=O)[C@H](C)[C@@H](O[C@H]2C[C@@](C)(OC)[C@@H](O)[C@H](C)O2)[C@H](C)[C@@H](O[C@@H]2O[C@H](C)C[C@H](N(C)C)[C@H]2O)[C@](C)(OC)C[C@@H](C)C(=O)[C@H](C)[C@@H](O)[C@]1(C)O [Clarithromycin (CLM), Clarithromycin, reference compound] | 130 µM | > 500 µM |  |  | 138.1 ± 1.1 µM | > 500 µM |  | 
CCC1OC(=O)[C@H](C)[C@H](OC2C[C@@](C)(OC)[C@@H](O)[C@H](C)O2)[C@H](C)[C@@H](OC2O[C@H](C)C[C@H](N(C)Cc3ccc(-n4cc(C)ccc4=O)cc3)[C@H]2O)[C@@](C)(OC)C[C@@H](C)C(=O)[C@H](C)[C@@H](O)[C@]1(C)O (some centres unmarked) [Compound 10a] | > 500 µM | > 500 µM |  |  | > 500 µM | > 500 µM |  | 
CCC1OC(=O)[C@H](C)[C@H](OC2C[C@@](C)(OC)[C@@H](O)[C@H](C)O2)[C@H](C)[C@@H](OC2O[C@H](C)C[C@H](N(C)Cc3cn(Cc4ccc(-n5cc(C)ccc5=O)cc4)nn3)[C@H]2O)[C@@](C)(OC)C[C@@H](C)C(=O)[C@H](C)[C@@H](O)[C@]1(C)O (some centres unmarked) [Compound 10b] | 116 ± 16 µM | 118 ± 28.4 µM |  |  | 102.6 ± 0.8 µM | 153 ± 19 µM |  | 
CCC1OC(=O)[C@H](C)[C@H](OC2C[C@@](C)(OC)[C@@H](O)[C@H](C)O2)[C@H](C)[C@@H](OC2O[C@H](C)C[C@H](N(C)Cc3ccc(-c4cn(Cc5ccc(-n6cc(C)ccc6=O)cc5)nn4)cc3)[C@H]2O)[C@@](C)(OC)C[C@@H](C)C(=O)[C@H](C)[C@@H](O)[C@]1(C)O (some centres unmarked) [Compound 10c] | 20.3 ± 1 µM | 11.1 ± 2.7 µM |  |  | 12.3 ± 1.8 µM | 5.1 ± 0.2 µM |  | 
O=C(O)/C=C/C=C/c1ccc2c(c1)OCO2 [Piperic acid (PPA), Piperic acid, reference compound] | > 500 µM | > 500 µM |  |  | > 500 µM | > 500 µM |  | 
Cc1ccc(=O)n(-c2ccccc2)c1 [Pirfenidone (Pir), Pirfenidone, reference compound] | 10900 µM | 5410 ± 241 µM |  |  | 5300 ± 178 µM | 10788 ± 0.6 µM |  | 

More lines, main results first:

IC50 (Hep-G2; [2]) | IC50 (A549; [3]) | IC50 (Hep-G2; [5]) | IC50 (A549; [6]) | Compound | IC50 [1] | IC50 (VERO; [4]) | IC50 (MRC-5) | IC50 (VERO; [7])
> 500 µM | > 500 µM |  |  | CCC1OC(=O)[C@H](C)[C@H](OC2C[C@@](C)(OC)[C@@H](O)[C@H](C)O2)[C@H](C)[C@@H](OC2O[C@H](C)C[C@H](N(C)CCc3ccc(-n4cc(C)ccc4=O)cc3)[C@H]2O)[C@@](C)(OC)C[C@@H](C)C(=O)[C@H](C)[C@@H](O)[C@]1(C)O (some centres unmarked) [Compound 12a] | 119 µM | > 500 µM |  | 
122 ± 3.7 µM | 116 ± 4.1 µM |  |  | CCC1OC(=O)[C@H](C)[C@H](OC2C[C@@](C)(OC)[C@@H](O)[C@H](C)O2)[C@H](C)[C@@H](OC2O[C@H](C)C[C@H](N(C)Cc3cn(CCc4ccc(-n5cc(C)ccc5=O)cc4)nn3)[C@H]2O)[C@@](C)(OC)C[C@@H](C)C(=O)[C@H](C)[C@@H](O)[C@]1(C)O (some centres unmarked) [Compound 12b] | 84 ± 4.5 µM | 104 ± 20.3 µM |  | 
28.1 ± 1.8 µM | 35.3 ± 1.5 µM |  |  | CCC1OC(=O)[C@H](C)[C@H](OC2C[C@@](C)(OC)[C@@H](O)[C@H](C)O2)[C@H](C)[C@@H](OC2O[C@H](C)C[C@H](N(C)Cc3ccc(-c4cn(CCc5ccc(-n6cc(C)ccc6=O)cc5)nn4)cc3)[C@H]2O)[C@@](C)(OC)C[C@@H](C)C(=O)[C@H](C)[C@@H](O)[C@]1(C)O (some centres unmarked) [Compound 12c] | 13.1 ± 1.2 µM | 14.2 ± 0.3 µM |  | 
30.9 ± 1.4 µM | 16.3 ± 1.6 µM |  |  | CCC1OC(=O)[C@H](C)[C@H](OC2C[C@@](C)(OC)[C@@H](O)[C@H](C)O2)[C@H](C)[C@@H](OC2O[C@H](C)C[C@H](N(C)CCCCc3ccc(-n4cc(C)ccc4=O)cc3)[C@H]2O)[C@@](C)(OC)C[C@@H](C)C(=O)[C@H](C)[C@@H](O)[C@]1(C)O (some centres unmarked) [Compound 14a] | 15.7 ± 2.3 µM | 19 ± 3.7 µM |  | 
44.8 ± 3.6 µM | 28.7 ± 3.4 µM |  |  | CCC1OC(=O)[C@H](C)[C@H](OC2C[C@@](C)(OC)[C@@H](O)[C@H](C)O2)[C@H](C)[C@@H](OC2O[C@H](C)C[C@H](N(C)Cc3cn(CCCCc4ccc(-n5cc(C)ccc5=O)cc4)nn3)[C@H]2O)[C@@](C)(OC)C[C@@H](C)C(=O)[C@H](C)[C@@H](O)[C@]1(C)O (some centres unmarked) [Compound 14b] | 32.8 ± 5.1 µM | 33.3 ± 1.9 µM |  | 
36.4 ± 6.6 µM | 10.9 ± 0.4 µM |  |  | CCC1OC(=O)[C@H](C)[C@H](OC2C[C@@](C)(OC)[C@@H](O)[C@H](C)O2)[C@H](C)[C@@H](OC2O[C@H](C)C[C@H](N(C)Cc3ccc(-c4cn(CCCCc5ccc(-n6cc(C)ccc6=O)cc5)nn4)cc3)[C@H]2O)[C@@](C)(OC)C[C@@H](C)C(=O)[C@H](C)[C@@H](O)[C@]1(C)O (some centres unmarked) [Compound 14c] | 11.6 ± 0.3 µM | 12.4 ± 0.2 µM |  | 
50.7 ± 3 µM | 44.1 ± 10.8 µM |  |  | CCC1OC(=O)[C@H](C)[C@H](OC2C[C@@](C)(OC)[C@@H](O)[C@H](C)O2)[C@H](C)[C@@H](OC2O[C@H](C)C[C@H](N(C)CC#Cc3ccc(-n4cc(C)ccc4=O)cc3)[C@H]2O)[C@@](C)(OC)C[C@@H](C)C(=O)[C@H](C)[C@@H](O)[C@]1(C)O (some centres unmarked) [Compound 19a] | 82.6 ± 0.3 µM | 55.5 ± 2.6 µM |  | 
60.9 ± 9 µM | 59.9 ± 0.8 µM |  |  | CCC1OC(=O)[C@H](C)[C@H](OC2C[C@@](C)(OC)[C@@H](O)[C@H](C)O2)[C@H](C)[C@@H](OC2O[C@H](C)C[C@H](N(C)CCC#Cc3ccc(-n4cc(C)ccc4=O)cc3)[C@H]2O)[C@@](C)(OC)C[C@@H](C)C(=O)[C@H](C)[C@@H](O)[C@]1(C)O (some centres unmarked) [Compound 19b] | > 500 µM | 130 ± 21.2 µM |  | 
24 ± 1.2 µM | 58.6 ± 1.4 µM |  |  | CCC1OC(=O)[C@H](C)[C@H](OC2C[C@@](C)(OC)[C@@H](O)[C@H](C)O2)[C@H](C)[C@@H](OC2O[C@H](C)C[C@H](N(C)CCCC#Cc3ccc(-n4cc(C)ccc4=O)cc3)[C@H]2O)[C@@](C)(OC)C[C@@H](C)C(=O)[C@H](C)[C@@H](O)[C@]1(C)O (some centres unmarked) [Compound 19c] | 15.2 ± 0.1 µM | 55.5 ± 0.4 µM |  | 
32 ± 0.1 µM | 35.4 ± 2.1 µM |  |  | CCC1OC(=O)[C@H](C)[C@H](OC2C[C@@](C)(OC)[C@@H](O)[C@H](C)O2)[C@H](C)[C@@H](OC2O[C@H](C)C[C@H](N(C)CCCCC#Cc3ccc(-n4cc(C)ccc4=O)cc3)[C@H]2O)[C@@](C)(OC)C[C@@H](C)C(=O)[C@H](C)[C@@H](O)[C@]1(C)O (some centres unmarked) [Compound 19d] | 28.9 ± 1.9 µM | 24.3 ± 0.1 µM |  | 
23.7 ± 2 µM | 23.8 ± 2.1 µM |  |  | CCC1OC(=O)[C@H](C)[C@H](OC2C[C@@](C)(OC)[C@@H](O)[C@H](C)O2)[C@H](C)[C@@H](OC2O[C@H](C)C[C@H](N(C)CCCCCC#Cc3ccc(-n4cc(C)ccc4=O)cc3)[C@H]2O)[C@@](C)(OC)C[C@@H](C)C(=O)[C@H](C)[C@@H](O)[C@]1(C)O (some centres unmarked) [Compound 19e] | 24.2 ± 0.6 µM | 13.2 ± 0.7 µM |  | 
